Experimental data taken from patent publication US11173193B2, “Immunobiological products” (priority 2016, dated 2021).

Columns and labels:
[1] = Solubility of hydro-colloid and chitosan; assay type: physicochemical
Description: Test solution: An adequate sample of Chitosan HCl, Chitosan-HAc, Chitosan, Chitosan-Valeric acid-Hydro Colloid and valeric acid, respectively was dissolved in the solvent above. This mixture was shacked and afterwards sonified in an ultrasonic bath for 5 min.
Sample: Chitosan suspended in water
Result: An acceptable solution of Chitosan in waterish or organic solvents like Methanol etc. is not possible. A suitable solubilization of Chitosan is only possible in stronger acids like HCl or HAc under production of Chitosan HCl or Chitosan HAc.

subclinical mastitis = conditions: known methods of treating mastitis of cows; cited from earlier work
mice = assay: Ear swelling test of mice, compared to Hostacortin H; assay type: in vivo
Description: Ear erythema was determined by visual inspection and detection of presence (+) or absence (−) signs.
The thickness of the control and experimental ear in all animals was measured with a micrometer. Performance measurements were summed (Σ) separately the right and left ears in groups. The percentage of ear swelling and activity series is calculated using the following formulas: […]

[2] = Dose 0.1 ml, right ear (allergen provocation site)

Molecule: chitosan
- Solubility in water [1]: water insoluble
- solution in waterish or organic solvents like Methanol [1]: not possible

Molecule: CCN(CC)CCOC(=O)c1ccc(N)cc1 [procaine]
- recovery time (subclinical mastitis): 3 to 5 days

Molecule: CC(=O)OCC(=O)[C@@]1(O)CC[C@H]2[C@@H]3CCC4=CC(=O)C=C[C@]4(C)[C@H]3[C@@H](O)C[C@@]21C [prednisolone-21-acetyl, prednisolone-21-acetate]
- Antiallergic activity in Ear swelling test after 2 hours post challenge (mice; Dose 0.1 ml): 14.2%
- Antiallergic activity in Ear swelling test after 24 hours post challenge (mice; Dose 0.1 ml): 17.5%
- Antiallergic activity in Ear swelling test after 48 hours post challenge (mice; Dose 0.1 ml): 10.7%
- Σ Ear thickness after 2 hours post challenge, Left (mice; Dose 0.1 ml, left ear): 335 μm
- Σ Ear thickness after 24 hours post challenge, Left (mice; Dose 0.1 ml, left ear): 330 μm
- Σ Ear thickness after 48 hours post challenge, Left (mice; Dose 0.1 ml, left ear): 326 μm
- Σ Ear thickness after 2 hours post challenge, Right (mice; [2]): 345 μm
- Σ Ear thickness after 24 hours post challenge, Right (mice; [2]): 360 μm
- Σ Ear thickness after 48 hours post challenge, Right (mice; [2]): 355 μm
- inflammatory response in challenged mice (mice; all stages of the experiment): positive dynamics of reducing inflammatory response
